Experimental data: BindingDB's records for doi:10.1016/j.chembiol.2005.11.011 (Cyclacel, 2006)

Target: Cyclin-dependent kinase 2 (Homo sapiens, UniProt P24941)
Assay: In Vitro Inhibition
Text: In vitro inhibition assay using human recombinant CDK2 and human recombinant cyclin A2.

## O=[N+]([O-])c1cccc(Nc2nccc(-c3cccc(Cn4cncn4)c3)n2)c1 [N-(3-nitrophenyl)-4-[3-(1H-1,2,4-triazol-1-ylmethyl)phenyl]pyrimidin-2-amine, 6]
  IC50: 250 nM
